According to PMC7849180 (Frontiers in Pharmacology, 2020):

How the values were obtained:
[1] = 28-day oral gavage toxicity; format: in vivo, Wistar rats; conditions: for drug exposure: 24.4 mg/kg
Experimental: Suzhou Zelgen Biopharmaceuticals Co., Ltd. Jaktinib Hydrochloride Tablets Chemical Drug Class 1 New Drug […]
active ingredient ZG0163). The control group contained 36 Wistar rats (6 rats were used for the toxicokinetic test) and each group of ZG0128 contained 54 rats (24 rats in each group were used for the toxicokinetic test), with half males and half females. The rats in each group were given the control substance (0.5% CMC-Na solution) or the corresponding concentrations of ZG0128 in a 10 mL/kg volume by oral gavage once a […]
The day of the first dose […]
is defined as day 1 of the dosing period, while the day of anatomy after the last dose is defined as day 1 of the recovery period. During the dosing period and the recovery […]
the body weight and food intake of the rats were measured twice a week during the […]
recovery periods, respectively. In the 219.6 mg/kg group, 12 (3 females, 9 males) and […]
and recovery periods, respectively. The rats in each group were anesthetized to collect blood samples for hematology and blood biochemistry tests. After the rats were […]
histopathological examination of tissue samples were performed. For the rats in […]
ZG0128 groups used for toxicokinetic test, their blood samples were collected before the first dose and last dose as well as 0.5, 1, 2, 3, 4, 6, 10, and 24 h after the first dose and last dose. For the rats in the control group, their blood samples were collected before the first dose and last dose and 3 h after the first dose and last dose, respectively.
LC-MS/MS was used to measure the concentrations of the original drug ZG0163 and its amide hydrolysis metabolite ZG0245 in the blood samples collected at various time […]
tissues, spleen, thymus, and bone marrow), digestive system (gastrointestinal tract, pancreas, and submandibular gland), reproduction system, kidney, and bones. The drug caused abnormal indicators related to liver, renal, and pancreatic functions, as well as decreased lymphocytes and platelets. At the dose of 73.2 mg/kg, some of the above lesions could be observed, but the severity of the lesions was mild. After drug discontinuation, the lesions in the submandibular gland, testis, and epididymis were still visible in 73.2 and 219.6 mg/kg groups, and the severity of the lesions was not […]
disappeared after drug discontinuation.
In the dose range of 24.4 to 219.6 mg/kg, the exposure to ZG0128 and its metabolite ZG0245 in female and male rats increased in proportion to the dose, and no significant gender difference was observed. After 28 days of consecutive administration, […]
both female and male rats of each dose group.
After the Wistar rats were given 24.4, 73.2, and 219.6 mg/kg of ZG0128 by oral […]
mg/kg. At this dose, the drug exposure dose in female rats on the first day of dosing […]
10124 h•ng/mL in male rats. On day 28 of dosing, the drug exposure dose in female

[2] = 26-week oral gavage toxicity; format: in vivo, Wistar rats
Experimental: (§1) Suzhou Zelgen Biopharmaceuticals Co., Ltd. Jaktinib Hydrochloride Tablets Chemical Drug Class 1 New Drug
Wistar rats were given 4, 12, or 30 mg/kg of ZG0128 via oral gavage once a day for 26 consecutive weeks, followed by 28 days for recovery after drug discontinuation.
Only the 30 mg/kg dose caused a slight decrease in lymphocyte counts, which might be related to the pharmacological effects of ZG0128. The lymphocyte counts were back to normal by the end of recovery period. No other obvious abnormalities related to the […]
conditions, body weight, ophthalmologic examination, blood biochemistry, blood coagulation, routine urinalysis, gross anatomy and histopathological examination during the trial. The no observed adverse effect level (NOAEL) was 30 mg/kg. At this dose, the drug exposure was 52697 h•ng/mL (based on the active ingredient ZG0163) in female rats and 67133 h•ng/mL in male rats on the first day of dosing, and on day 182 of dosing the drug exposure was 75339 h•ng/mL (based on the active ingredient ZG0163) in female rats and 45024 h•ng/mL in male rats. […]

[3] = Single-dose oral toxicity; format: in vivo, Beagle dogs
Experimental: as §1
During the trial, the general conditions of the […]
measured once on days 3, 7, and 13, respectively. After 14 days of observation, the […]
and blood biochemistry tests. All rats were euthanized for gross anatomy. […]
after drug administration. […] During the […]
biochemistry tests were performed on days 2 and 15. After 14 days of observation, all dogs were anesthetized and euthanized for gross anatomy. Blood samples were […]
administration in ZG0128 dose groups. LC-MS/MS was used to measure the […]
AUClast, Cmax, Tmax, and other toxicokinetic parameters.

[4] = PK, 7-day intragastric dosing; format: in vivo, rats; conditions: for AUC0-t / AUC0-∞ / Cmax / Tmax / t1/2: 30.5 mg/kg (multiple dose)
Experimental: After 7 consecutive days of continuous intragastric administration (30.5 mg/kg once a day) of ZG0128 in rats, the plasma concentration reached a steady state on day […]
values obtained after the single-dose administration, respectively. The Cmax and AUC0-t of the metabolite ZG0245 were 1.19 and 1.52 times the values obtained after the single-dose administration, respectively. […]
consecutive days of administration, there was no significant accumulation of ZG0163 and the metabolite ZG0245 in rats. The pharmacokinetic parameters obtained after […]
Table 12. Pharmacokinetic parameters of ZG0163 in rats given different doses of ZG0128 via oral gavage (n = 6, male:female=1:1).
Dosage Gender Tmax Cmax AUC0-t AUC0-∞ MRT t1/2

Cl.Cl.O.[2H]C1([2H])COCC([2H])([2H])N1c1ccc(Nc2nccc(-c3ccc(C(=O)NCC#N)cc3)n2)cc1 [ZG0128, Jaktinib Dihydrochloride Monohydrate]
highest non-severely toxic dose (HNSTD) ([1]; 28 consecutive days): 24.4 mg/kg
dose causing dying or death ([1]; 28 days): 219.6 mg/kg
NOAEL ([2]; rat, in vivo): 30 mg/kg
maximum tolerated dose (MTD) ([3]; single oral dose): 1220 mg/kg
day on which steady state was reached ([4]; 30.5 mg/kg once a day): 5 days

Jaktinib
drug exposure ([1]; female rats, day 28): 51893 ± 20625 ng·h/mL
drug exposure ([1]; female rats, first day): 60887 ± 21040 ng·h/mL
drug exposure ([1]; male rats, day 28): 46522 ± 17149 ng·h/mL
drug exposure ([1]; male rats, first day): 50799 ± 10124 ng·h/mL
NOAEL ([2]; 26 weeks): 30 mg/kg
NOAEL ([2]; Wistar rats, oral, 26 weeks): 30 mg/kg/day
AUC0-t ([3]; single oral 366 mg/kg ZG0128): 10215 ± 10044 ng/mL
AUC0-t ([3]; single oral 1220 mg/kg ZG0128): 19752 ± 9998 ng/mL
AUC0-t ([4]; Female): 67600 ± 27600 ng·h/mL
AUC0-∞ ([4]; Female): 67800 ± 27800 ng·h/mL
Cmax ([4]; Female): 11000 ± 4220 ng/mL
Tmax ([4]; Female): 1.0 h
t1/2 ([4]; Female): 1.81 ± 1.55 h
AUC0-t ([4]; Male): 35700 ± 13500 ng·h/mL
AUC0-∞ ([4]; Male): 36000 ± 13800 ng·h/mL
Cmax ([4]; Male): 6340 ± 1230 ng/mL
Tmax ([4]; Male): 1.0 (1.0-2.0) h
t1/2 ([4]; Male): 2.15 ± 0.62 h
AUC0-t ([4]; Overall): 51700 ± 26100 ng·h/mL
AUC0-∞ ([4]; Overall): 51900 ± 26200 ng·h/mL
Cmax ([4]; Overall): 8670 ± 3770 ng/mL
Tmax ([4]; Overall): 1.0 (1.0-6.0) h
t1/2 ([4]; Overall): 1.98 ± 1.07 h
